Data taken from patent publication US20130324595A1, “C-GLUCOSIDIC ELLAGITANNIN COMPOUNDS FOR USE FOR ALTERING THE SUPRAMOLECULAR ARRANGEMENT OF ACTIN AND FOR THE TREATMENT OF OSTEOPOROSIS, CANCER, BACTERIAL INFECTION AND VIRAL INFECTION” (priority 2011, published 2013).
Entries after “also recorded” stand apart in the source; their conditions may differ. *1 amine or outer side, *2 acyl side, *3 side chain or, on linkers, in order; H or OH if unused. Where a SMILES comes first, the peptide text is derived from it. Bridges are numbered along the chain shown (N, C = ends). [ ]: non-standard residue; d: D form. Trp(2-yl) = O=C([C@H](Cc1c([*:3])[nH]c2ccccc12)N[*:1])[*:2]; Leu(4R-OH,5-OH) = C[C@](O)(CO)C[C@H](N)C(=O)O; cisHyp = O=C(O)[C@@H]1C[C@H](O)CN1

Legend:
osteoclast [1] = conditions: cited from earlier work
[2] = test system: actin cytoskeleton in bovine aortic endothelial cells (BAEc); assay: effect on the actin cytoskeleton (stress fibers) in living BAEc; type: cell-based
Description: The inventors' initial interest in studying these C-glucosidic ellagitannins stems from the premise that the highly pre-organized medium-sized ring-containing multiple-phenol array featured by such natural products should be structurally well-suited to interfere with the construction of protein-made cellular architectures, on top of the list of which are actin filaments and microtubules. The inventors thus decided to probe the latter hypothesis by first examining the effect of a selection of four C-glucosidic ellagitannins on the actin cytoskeleton in living cells. […] The selected compounds were the two most abundant C-glucosidic ellagitannins found in the heartwood of oak species, vescalagin and its C-1 epimer castalagin, and their corresponding two minor congeners, vescalin and castalin, both lacking the hexahydroxydiphenoyl (HHDP) unit at positions 4 and 6 of the glucose core (FIG. 1). The inventors used bovine aortic endothelial cells (BAEc), a well-characterized type of primary cells. Any of the four ellagitannins used at 50 μM rapidly provoked the disappearance of the internal stress fiber network observed in control cells.

microtubule network = assay: alteration of the microtubule network in treated cells; type: cell-based
osteoclast [3] = conditions: cited from earlier work; remark: listed apart in the source
actin cytoskeleton = assay: reversibility of cytoskeletal alterations by washing out; type: cell-based
Description: The vescalagin-induced F-actin disrupting effect seen in BAEc was also observed in fibroblast cells (baby hamster kidney cells, BHK), which also express β-actin as the main actin isoform, as well as in smooth muscle cells (A7r5), which in contrast predominantly express α-actin.
It rapidly enters cells, and this despite its high hydrophilicity. Its dose-dependent effects on the actin cytoskeleton relies on its interaction with F-actin without any perturbation of the microtubule network. […] The results found by the inventors are consistent with a mode of action through which the binding of vescalagin occurs along the length of the actin filament, probably at the protein-protein interface of the so-polymerized actin supramolecular association. The presence of two analogous polyhydroxylated arene motifs (i.e., the NHTP and HHDP units, see FIG. 1) likely constitutes the key structural feature that enables vescalagin to wind F-actin into balls by engaging it through multiple intra- and/or intermolecular contacts. […] Future studies will be devoted to the elucidation of the vescalagin-actin interaction at the molecular level and to the comparative evaluation of the anti-actin effects of the other C-glucosidic ellagitannins initially screened herein. Moreover, the SPR method the inventors developed using a biotinylated vescalagin conjugate to discriminate the binding of vescalagin to F- versus G-actin confirms the value of the technique for the study of polyphenol-protein interactions. Finally, the inventors have to recall that oak-derived C-glucosidic ellagitannins, including vescalagin, are present in wines as a result of their aging in oak-made barrels.

BAEc [4] = assay: cellular morphology and mitosis, light microscopy; type: cell-based, bovine
Description: (§1) Vescalagin-induced dissolution of stress fibers affected cellular morphology and, eventually, viability. […] Functional consequences on cell behavior translated into impaired endothelial cell wound repair capacity. […] Overall, this ensemble of experimental data illustrates the rapid and sustained effects of vescalagin on cell behavior.

BAEc [5] = assay: propidium iodide (PI) staining, cytotoxicity; type: cell-based, bovine; conditions: for cytotoxicity by PI staining: 50 μM
Description: as §1

[6] = test system: mechanically injured endothelium; assay: endothelial cell wound repair; type: cell-based, bovine
Description: as §1

actin-GFP in BAEc = assay: live imaging and FRAP on actin-GFP expressing BAEc; type: cell-based, bovine; conditions: 100 μM
Procedure: FIG. 2. Live imaging of BAEc expressing actin-GFP were subjected to FRAP in the absence or presence of vescalagin (100 μM). A. A boxed region (200×100 pixel square) was photobleached [before (t 0″), immediately after (t 38″) and after photobleaching (t 98″)]; and normalized fluorescence intensity in the boxed region is shown for the entire duration of the FRAP experiment. […] B. Quantitation of the results showing the immobile fraction as calculated from the difference between pre- and post-photobleaching intensities (n=6).
Destabilization of the stress fibers was visualised by the progressive loss of filamentous staining, concomitantly with cell retraction as observed in phase contrast. Noticeably, thick F-actin bundles were maintained. To detect and unveil the internal dynamics of these apparently immobile F-actin bundles, the inventors performed a fluorescence recovery after photobleaching (FRAP) assay on actin-GFP expressing BAEc in the absence or presence of vescalagin (FIG. 2). […] From these experiments, the inventors conclude that vescalagin affects both thin and thick actin fibers, F-actin bundles made of packed actin filaments being less vulnerable to the action of vescalagin than the single filament dendritic meshwork at the cell periphery.

actin (G-actin/F-actin) = assay: in vitro actin polymerization, F-actin (pellet) versus G-actin (supernatant) at steady state; type: biochemical; conditions: for G-actin/F-actin ratio at steady state: vescalagin 100 μM, cytochalasin D 4 μM, phalloidin 2 μM
Procedure: (§2) FIG. 4. A. Actin polymerization at its steady state in both permissive and non-permissive conditions was continued (30 min) in the presence of either alexa633-phalloidin or vescalagin-FITC. […] B. This effect is dose-dependent. C.
In the same way, quantifying the amount of F-actin (pellet) versus that of G-actin (supernatant) at the steady state was achieved by Western blot after high-speed centrifugation of samples treated with either vescalagin (100 μM), cytochalasin D (4 μM) or phalloidin (2 μM). […] The same effect was observed when using the vescalagin-FITC conjugate (FIG. 4C).

F-actin [7] = assay: phalloidin binding to vescalagin-decorated F-actin (binding site)
[8] = test system: podosomes in bovine aortic endothelial cells (BAEc); assay: podosome formation in TGF-β stimulated BAEc; type: cell-based; conditions: for inhibition of podosome formation: compound added from the beginning of the TGF-β stimulation (24 h) versus last hour
Procedure: FIG. 7. Dose responses of endothelial cells following vescalagin or vescalin treatment. BAEc were incubated for 24 hours with TGF-β (which stimulates formation of podosomes), and different concentrations of vescalagin or vescalin were added either from the beginning of the TGF-β stimulation, or during the last hour of stimulation. Cells were then fixed and treated for immunofluorescence analysis. Podosomes were visualized by double staining using phalloidin (a F-actin marker) and cortactin (a podosome marker). The percentage of total cells showing podosomes was then quantified and compared to the control (cells incubated with TGF-β only). A. BAEc were stimulated for 24 hours with TGF-β, and vescalagin or vescalin was added during the last hour of stimulation. B. BAEc were stimulated for 24 hours with TGF-β, and vescalagin or vescalin was added from the beginning of the TGF-β stimulation.
In this assay, bovine aortic endothelial cells (BAEc) were used. These cells form podosomes following a few hours of incubation with TGF-β. Cells were fixed after 24 hours of stimulation. Two protocols were tested. In the first protocol, cells were stimulated for 24 hours with TGF-β, and vescalagin or vescalin was added during the last hour of stimulation (FIG. 7A). In the second protocol, cells were stimulated for 24 hours with TGF-β, and vescalagin or vescalin was added from the beginning of the TGF-β stimulation (FIG. 7B). In both cases, cells were then fixed and treated for immunofluorescence analysis. Podosomes were visualized by double staining using phalloidin (a F-actin marker) and cortactin (a podosome marker). The percentage of total cells showing podosomes was then quantified and compared to the control (cells incubated with TGF-β only) (FIGS. 7A and 7B).

F-actin [9] = assay: in vitro actin polymerization, high-speed centrifugation, stained pellet; type: binding; conditions: 30 min at steady state
Procedure: as §2
To explore whether or not the interaction between vescalagin and actin was direct, the inventors set up an in vitro assay based on actin polymerization from a solution of Ca^2+-actin-ATP monomers. Spontaneous polymerization occurs when Ca^2+ is replaced by Mg^2+ provided by the F-actin buffer. The inventors performed high-speed centrifugation of the samples to separate the neo-formed polymers from the monomers to discriminate binding of vescalagin to either F-actin, G-actin or both. To visualize these presumptive molecular associations, the inventors used again the vescalagin-bearing fluoprobe and a fluorescent Alexa633-phalloidin to stain F-actin. Actin polymerization was carried out until it reached its steady state in both permissive and non-permissive conditions (i.e., in the presence or absence of Mg^2+-containing F-buffer). The experiment was then continued for 30 min in the presence of either vescalagin-FITC conjugate or Alexa633-phalloidin, and the formation of actin polymers was then assessed by high-speed centrifugation.

bone resorption = conditions: by inhibiting calcium release; cited from earlier work

## O=C1O[C@H]2[C@H](O)[C@@H](OC(=O)c3cc(O)c(O)c4c3[C@@H]3C1=CC(=O)C(O)(O)C3(O)O4)[C@H](OC(=O)c1cc(O)c(O)c(O)c1)O[C@@H]2CO (stereo partly shown) [furosin]
Osteoclast [1]
  osteoclast differentiation and function: inhibitory effect

## C=C1[C@@H](C)[C@H]2[C@H](Cc3ccccc3)NC(=O)[C@]23[C@H](OC(C)=O)/C=C/[C@@](C)(O)C(=O)[C@@H](C)C/C=C/[C@H]3[C@@H]1O [cytochalasin D, reference compound]
[2]; BAEc, cytochalasin D comparison
  effect on actin configuration (stress fibers): also effective
Microtubule network
  alteration of the microtubule network: no alteration of the microtubule network

## roburin C
Osteoclast [3]
  inhibition of osteoclast differentiation and function: highest potency

## roburin D
Osteoclast [3]
  inhibition of osteoclast differentiation and function: highest potency

## O=C1OCC2OC(=O)c3cc(O)c(O)c(O)c3-c3c(O)c(O)c(O)c4c3C(=O)OC(C2OC(=O)c2cc(O)c(O)c(O)c2-c2c1cc(O)c(O)c2O)C1OC(=O)c2c-4c(O)c(O)c(O)c2C1O (stereo not shown) [vescalagin]
[2]; four C-glucosidic ellagitannins
  relative activity within the series evaluated: most active compound of the series
Microtubule network
  alteration of the microtubule network: no alteration of the microtubule network
Actin cytoskeleton; treatment 1 hour, 100 μM
  reversibility of actin cytoskeleton alterations by washing: reversible by washing
Actin cytoskeleton; treatment 24 hours, 50 μM
  reversibility of actin cytoskeleton alterations by washing: reversible by washing
Actin cytoskeleton; within 1 h
  reversal of cytoskeletal alterations by washing out with fresh medium: completely reversed
Actin cytoskeleton; within 1 h of treatment, up to 100 μM
  reversibility of effects on the actin cytoskeleton: fully reversible
BAEc [4]; 50 μM
  mitosis: still observed
BAEc [4]; 100 μM
  mitosis: impaired
BAEc [4]; range of concentrations and incubation times applied
  cell morphology: changed their morphology from a well spread to a more retracted appearance
BAEc [5]; 6 h
  cytotoxicity by PI staining: no cytotoxicity
BAEc [5]; 24 h
  cytotoxicity by PI staining: no cytotoxicity
BAEc [5]; 100 μM, 24 h
  cell death (apoptotic nuclei): irreversible commitment to cell death; also recorded: presence of apoptotic nuclei
[6]; 20 μM
  serum-stimulated healing of mechanically injured endothelium: reduced by about half
[6]; 100 μM, 6 h
  cell viability: still compatible with the maintenance of cell viability
  repopulation of the denudated area: remained virtually unpopulated
actin-GFP in BAEc
  actin-GFP distribution, live imaging: immediate alteration of actin-GFP distribution at cell margin
actin-GFP in BAEc; n=6
  immobile fraction of actin (FRAP): increases the immobile fraction of actin
Actin (G-actin/F-actin)
  dose dependence of the G-actin depletion: dose-dependent manner
  G-actin/F-actin ratio at steady state: marked depletion of G-actin
F-actin [7]
  binding site on F-actin relative to phalloidin: does not bind at the same site(s) as phalloidin
[8]; 24 h TGF-β, vescalagin versus vescalin
  inhibition of podosome formation (percentage of cells showing podosomes): stronger inhibitor activity than vescalin
[8]
  inhibition of podosome formation: less pronounced effects

## C[C@@H]1NC(=O)[C@H](C[C@@](C)(O)CO)NC(=O)[C@@H]2Cc3c([nH]c4ccccc34)SC[C@H](NC(=O)[C@@H]([C@H](C)O)NC1=O)C(=O)N1C[C@@H](O)C[C@H]1C(=O)N[C@@H](C)C(=O)N2 [phalloidin, reference compound] (cyclo(A[dT]C[cisHyp]A[Trp(2-yl)][Leu(4R-OH,5-OH)]); thioether 3-6)
Actin (G-actin/F-actin)
  G-actin/F-actin ratio at steady state: marked depletion of G-actin

## fluorescein isothiocyanate [FITC]
F-actin [9]
  binding to F-actin (stained pellet after high-speed centrifugation): no F-actin was detected

## O=C1O[C@H](CO)[C@@H](O)[C@@H]2OC(=O)c3c(c(O)c(O)c(O)c3-c3c(O)c(O)c(O)c4c3C(=O)O[C@H]2[C@@H]4O)-c2c1cc(O)c(O)c2O [vescalin]
[8]
  inhibition of podosome formation: less pronounced effects

## O=C(OC1C(OC(=O)c2cc(O)c(O)c(O)c2Oc2cc3c(c(O)c2O)-c2c(cc(O)c(O)c2O)C(=O)OC(C2OC(=O)c4cc(O)c(O)c(O)c4-c4c(cc(O)c(O)c4O)C(=O)OCC2O)C(C(O)c2c(O)cc4c(c2O)CC(O)C(c2ccc(O)c(O)c2)O4)OC3=O)C(O)OC2COC(=O)c3cc(O)c(O)c(O)c3-c3c(cc(O)c(O)c3O)C(=O)OC21)c1cc(O)c(O)c(O)c1 (stereo not shown) [camelliatannin D]
Bone resorption
  bone resorption: potentially inhibits bone resorption
